Assay results: ChEMBL document CHEMBL3885881, “DrugMatrix”

Organism: Rattus norvegicus
Test: DrugMatrix - Regimen: Daily Repeat
Format: toxicity, organism-based, Sprague-Dawley
Design: regimen Daily Repeat, gender Male, age 6-8 weeks
Conditions: in vivo, po, route oral GAVAGE, vehicle .5 % CMC; for ABSOLUTE BASOPHIL / ABSOLUTE EOSINOPHIL / ABSOLUTE LYMPHOCYTE / ABSOLUTE MONOCYTE / ABSOLUTE SEGMENTED NEUTROPHIL / BASOPHIL / EOSINOPHIL / ERYTHROCYTE COUNT / HEMATOCRIT / HEMOGLOBIN / LEUKOCYTE COUNT / LYMPHOCYTE / MEAN CORPUSCULAR HEMOGLOBIN / MEAN CORPUSCULAR HEMOGLOBIN CONCENTRATION / MEAN CORPUSCULAR VOLUME / MONOCYTE / NEUTROPHIL / NUCLEATED RED BLOOD CELLS / PLATELET COUNT: tissue Blood; for ALANINE AMINOTRANSFERASE / ALBUMIN / ALKALINE PHOSPHATASE / ASPARTATE AMINOTRANSFERASE / BLOOD UREA NITROGEN / CARBON DIOXIDE / CHLORIDE / CHOLESTEROL / CREATINE PHOSPHOKINASE / CREATININE / GLUCOSE / LACTATE DEHYDROGENASE / LIPASE / PHOSPHORUS / POTASSIUM / SODIUM / TOTAL BILIRUBIN / TOTAL PROTEIN / URIC ACID: tissue Plasma
[1] = 0 mg/kg, 72 h, dose level Control, time 3 day
[2] = 0 mg/kg, 120 h, dose level Control, time 5 day
[3] = 25 mg/kg, 72 h, dose level Low, time 3 day

C[C@](O)(CS(=O)(=O)c1ccc(F)cc1)C(=O)Nc1ccc(C#N)c(C(F)(F)F)c1 [(R)-BICALUTAMIDE]
ABSOLUTE BASOPHIL [1]: 0 CELLS/uL
ABSOLUTE EOSINOPHIL [1]: 171.33 CELLS/uL
ABSOLUTE LYMPHOCYTE [1]: 13776.5 CELLS/uL
ABSOLUTE MONOCYTE [1]: 180.83 CELLS/uL
ABSOLUTE SEGMENTED NEUTROPHIL [1]: 1121.33 CELLS/uL
BASOPHIL [1]: 0%
EOSINOPHIL [1]: 1%
ERYTHROCYTE COUNT [1]: 5.56 x10E6/uL
HEMATOCRIT [1]: 34.75%
HEMOGLOBIN [1]: 13.68 G/DL
LEUKOCYTE COUNT [1]: 15.25 x10E3/uL
LYMPHOCYTE [1]: 90.17%
MEAN CORPUSCULAR HEMOGLOBIN [1]: 24.6 pg
MEAN CORPUSCULAR HEMOGLOBIN CONCENTRATION [1]: 39.4 G/DL
MEAN CORPUSCULAR VOLUME [1]: 62.48 fL
MONOCYTE [1]: 1.17%
NEUTROPHIL [1]: 7.67%
NUCLEATED RED BLOOD CELLS [1]: 0 /100WBC
PLATELET COUNT [1]: 1342 x10E3/uL
ALANINE AMINOTRANSFERASE [1]: 49.67 u/L
ALBUMIN [1]: 4.15 G/DL
ALKALINE PHOSPHATASE [1]: 346.83 u/L
ASPARTATE AMINOTRANSFERASE [1]: 108.17 u/L
BLOOD UREA NITROGEN [1]: 17.33 mg/dL
CARBON DIOXIDE [1]: 25 mmol/L
CHLORIDE [1]: 100.83 MEQ/L
CHOLESTEROL [1]: 66.83 mg/dL
CREATINE PHOSPHOKINASE [1]: 788 u/L
CREATININE [1]: 0.18 mg/dL
GLUCOSE [1]: 151.67 mg/dL
LACTATE DEHYDROGENASE [1]: 982.5 u/L
LIPASE [1]: 10.33 u/L
PHOSPHORUS [1]: 11.23 mg/dL
POTASSIUM [1]: 6.37 MEQ/L
SODIUM [1]: 141.02 MEQ/L
TOTAL BILIRUBIN [1]: 0.18 mg/dL
TOTAL PROTEIN [1]: 5.9 G/DL
URIC ACID [1]: 1.8 mg/dL
ABSOLUTE BASOPHIL [2]: 0 CELLS/uL
ABSOLUTE EOSINOPHIL [2]: 69 CELLS/uL
ABSOLUTE LYMPHOCYTE [2]: 13632.83 CELLS/uL
ABSOLUTE MONOCYTE [2]: 139.83 CELLS/uL
ABSOLUTE SEGMENTED NEUTROPHIL [2]: 1225 CELLS/uL
BASOPHIL [2]: 0%
EOSINOPHIL [2]: 0.33%
ERYTHROCYTE COUNT [2]: 5.52 x10E6/uL
HEMATOCRIT [2]: 33.98%
HEMOGLOBIN [2]: 13.22 G/DL
LEUKOCYTE COUNT [2]: 15.07 x10E3/uL
LYMPHOCYTE [2]: 90.83%
MEAN CORPUSCULAR HEMOGLOBIN [2]: 23.95 pg
MEAN CORPUSCULAR HEMOGLOBIN CONCENTRATION [2]: 38.9 G/DL
MEAN CORPUSCULAR VOLUME [2]: 61.53 fL
MONOCYTE [2]: 0.83%
NEUTROPHIL [2]: 8%
NUCLEATED RED BLOOD CELLS [2]: 0 /100WBC
PLATELET COUNT [2]: 1196 x10E3/uL
ALANINE AMINOTRANSFERASE [2]: 49.17 u/L
ALBUMIN [2]: 4.2 G/DL
ALKALINE PHOSPHATASE [2]: 352.33 u/L
ASPARTATE AMINOTRANSFERASE [2]: 89.67 u/L
BLOOD UREA NITROGEN [2]: 18 mg/dL
CARBON DIOXIDE [2]: 27.67 mmol/L
CHLORIDE [2]: 101 MEQ/L
CHOLESTEROL [2]: 72.83 mg/dL
CREATINE PHOSPHOKINASE [2]: 417.5 u/L
CREATININE [2]: 0.18 mg/dL
GLUCOSE [2]: 150.5 mg/dL
LACTATE DEHYDROGENASE [2]: 517.33 u/L
LIPASE [2]: 9 u/L
PHOSPHORUS [2]: 11.87 mg/dL
POTASSIUM [2]: 6.57 MEQ/L
SODIUM [2]: 143.62 MEQ/L
TOTAL BILIRUBIN [2]: 0.2 mg/dL
TOTAL PROTEIN [2]: 6.08 G/DL
URIC ACID [2]: 1.45 mg/dL
ABSOLUTE BASOPHIL [3]: 0 CELLS/uL
ABSOLUTE EOSINOPHIL [3]: 0 CELLS/uL
ABSOLUTE LYMPHOCYTE [3]: 11565 CELLS/uL
ABSOLUTE MONOCYTE [3]: 208.33 CELLS/uL
ABSOLUTE SEGMENTED NEUTROPHIL [3]: 926.67 CELLS/uL
BASOPHIL [3]: 0%
EOSINOPHIL [3]: 0%
ERYTHROCYTE COUNT [3]: 5.66 x10E6/uL
HEMATOCRIT [3]: 35.2%
HEMOGLOBIN [3]: 13.9 G/DL
LEUKOCYTE COUNT [3]: 12.7 x10E3/uL
LYMPHOCYTE [3]: 91%
MEAN CORPUSCULAR HEMOGLOBIN [3]: 24.57 pg
MEAN CORPUSCULAR HEMOGLOBIN CONCENTRATION [3]: 39.47 G/DL
MEAN CORPUSCULAR VOLUME [3]: 62.23 fL
MONOCYTE [3]: 1.67%
NEUTROPHIL [3]: 7.33%
NUCLEATED RED BLOOD CELLS [3]: 0.33 /100WBC
PLATELET COUNT [3]: 1165 x10E3/uL
ALANINE AMINOTRANSFERASE [3]: 46.33 u/L
ALBUMIN [3]: 4.1 G/DL
ALKALINE PHOSPHATASE [3]: 367.67 u/L
ASPARTATE AMINOTRANSFERASE [3]: 75.67 u/L
BLOOD UREA NITROGEN [3]: 14.33 mg/dL
CARBON DIOXIDE [3]: 27 mmol/L
CHLORIDE [3]: 102.67 MEQ/L
CHOLESTEROL [3]: 80.33 mg/dL
CREATINE PHOSPHOKINASE [3]: 447.67 u/L
CREATININE [3]: 0.21 mg/dL
GLUCOSE [3]: 137.67 mg/dL
LACTATE DEHYDROGENASE [3]: 242 u/L
LIPASE [3]: 10.67 u/L
PHOSPHORUS [3]: 11.97 mg/dL
POTASSIUM [3]: 6.21 MEQ/L
SODIUM [3]: 143.67 MEQ/L
TOTAL BILIRUBIN [3]: 0.2 mg/dL
TOTAL PROTEIN [3]: 5.87 G/DL
URIC ACID [3]: 1.37 mg/dL
